The results in this text go back to patent publication EP1105728B1, “MODULATING MULTIPLE LINEAGE KINASE PROTEINS” (CEPHALON, INC., priority 1998, dated 2000).

The data set concerns SNB motor neurons. The experiment in a line: Developmentally regulated motor neuronal death in the neonatal rat (SNB). The format is in vivo. On the procedure:
Untimed pregnant Sprague-Dawley rats were obtained from Harlan Laboratories (Indianapolis, IN). Female rat pups were injected daily, subcutaneously (SC), over the target perineal muscles, with Compound III-3 in 5% Solutol ™ HS 15 or vehicle along starting on the day of birth (P1) and continuing for 5 days (P5). On P10 or P60, pups were decapitated, blood was collected in heparinized capillary tubes, and the region of the spinal cord containing the sexually dimorphic spinal nucleus of the bulbocavemosus (SNB) and the perineal area containing the bulbocavernosus (BC) and levator ani (LA) muscles were dissected after perfusion of the animals with saline/formalin. The region of the spinal cord containing the SNB was postfixed, embedded in Paraplast, sectioned at 10µm, and stained with Cresylecht violet (Nordeen, et al., Science, 1985, 229, 671-673, which is incorporated herein by reference in its entirety). Motor neurons were counted at X500 in serial sections from the lumbar 5 to the sacral 1 region of the spinal cord as described previously (Nordeen, et al., supra). The microscopic enumeration was made on coded sections by an observer blinded to the treatment groups. Motor neuron counts were corrected for cell size and section thickness (Konisgsmark, Contemporary Research Methods in Neuroanatomy, Nauta & Ebbesson, Eds., 1970, Springer-Verlag, New York, pp.315-340, which is incorporated herein by reference in its entirety) and statistical analysis was by one-way analysis ofvariance (ANOVA). Perineal musculature was postfixed, decalcified, embedded in Paraplast, sectioned at I 0µm and stained with Milligan's Trichrome. […] The outline of muscle tissue was traced from alternate sections using a projection microscope (62.5), and the cross-sectional area was measured using a digitizing pad and a computer-based morphometry system (Sigmascan, Jandel Scientific). Muscle volume was calculated by talking the total cross-sectional area and multiplying it by the section thickness, and corrected for the percentage of the structure sampled.

`CCSCc1ccc2c(c1)c1c3c(c4c5cc(CSCC)ccc5n5c4c1n2C1CC(O)(C(=O)OC)C5(C)O1)CNC3=O` (stereo not drawn) [III-3]: the “rescued motor neurons identifiable morphologically 55 days after the last treatment” value (0.5 and 1 mg/kg per day PN 1-5, sacrifice at PN60) amounted to 100%. Under “0.5 and 1 mg/kg per day sc, PN 1-5, female rats”, the “enhancement in motor-neuronal survival” value turned out to be 70%. The “weight loss, mortality, gross tissue damage” value (SNB model) is “no associated weight loss, mortality, or gross tissue damage”.
